Columns and labels:
FldA = molecular target: T1, FldA (Escherichia coli, UniProt P61949); experiment: solution NMR structure of holo-form; […] HSQC titration; assay type: binding; conditions: oxidized FMN, non-covalent; pH 7.0, 30 mM sodium phosphate, 30 mM NaCl, 25 °C
T1 construct: monomer; long-chain flavodoxin
T1 sequence (P61949 1-176): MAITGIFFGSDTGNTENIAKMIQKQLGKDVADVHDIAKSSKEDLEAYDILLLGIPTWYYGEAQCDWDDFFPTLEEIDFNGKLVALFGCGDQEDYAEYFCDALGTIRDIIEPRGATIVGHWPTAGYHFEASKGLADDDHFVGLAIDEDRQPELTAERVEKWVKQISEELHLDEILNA

YqcA = molecular target: T2, YqcA (Escherichia coli, UniProt P65367); experiment: as above; assay type: binding; conditions: oxidized FMN, non-covalent; slow exchange; pH 7.0, 30 mM sodium phosphate, 30 mM NaCl, 25 °C
T2 construct: monomer; short-chain flavodoxin
T2 sequence (P65367 whole entry): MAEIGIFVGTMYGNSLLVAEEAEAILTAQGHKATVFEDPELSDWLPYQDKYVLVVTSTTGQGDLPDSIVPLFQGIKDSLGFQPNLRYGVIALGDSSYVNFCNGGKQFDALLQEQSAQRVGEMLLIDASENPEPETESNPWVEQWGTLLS

`Cc1cc2nc3c(=O)[nH]c(=O)nc-3n(C[C@H](O)[C@H](O)[C@H](O)COP(=O)(O)O)c2cc1C` [FMN] was tested, and the “solution NMR structure of holo-form; 15N HSQC titration” value (FldA) was “FMN titration experiments were performed with FldA” and the “solution NMR structure of holo-form; 15N HSQC titration” value (YqcA) was “These results demonstrate that YqcA binds FMN with high affinity”.

From PMC4122359, “Conformational Dynamics of Escherichia coli Flavodoxins in Apo- and Holo-States by Solution NMR Spectroscopy” (PLoS ONE, 2014)
